The results in this text go back to article PMC6145935, “Asymmetric assembly of high-value α-functionalized organic acids using a biocatalytic chiral-group-resetting process” (Nature Communications, 2018).

This assay addresses T1, CgTD (Corynebacterium glutamicum, UniProt Q04513).
T1 construct: gene ilvA; recombinant, expressed in E. coli BL21(DE3) from pETDuet-1 (pETduet-CgTD)
T1 sequence (Q04513 1-436): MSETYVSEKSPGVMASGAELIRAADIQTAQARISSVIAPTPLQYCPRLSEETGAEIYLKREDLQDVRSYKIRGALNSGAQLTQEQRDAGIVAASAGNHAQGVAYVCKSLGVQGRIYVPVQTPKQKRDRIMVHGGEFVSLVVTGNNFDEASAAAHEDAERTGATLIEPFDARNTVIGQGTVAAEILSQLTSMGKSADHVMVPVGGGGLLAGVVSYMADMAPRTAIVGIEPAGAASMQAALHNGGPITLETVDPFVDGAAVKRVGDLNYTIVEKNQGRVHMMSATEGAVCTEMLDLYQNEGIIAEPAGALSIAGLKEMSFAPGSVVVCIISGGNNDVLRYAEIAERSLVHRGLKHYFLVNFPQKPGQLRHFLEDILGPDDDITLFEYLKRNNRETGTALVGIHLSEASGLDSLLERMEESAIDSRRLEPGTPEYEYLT
Description: TD activity screen of enzyme expressed in E. coli. Conditions: PLP enzyme; deamination to alpha-keto acid 4a.

Take `N[C@H](C(=O)O)[C@@H](O)c1ccccc1` [erythro-3a, erythro-ʟ-phenylserine]: the “TD activity screen of enzyme expressed in E. coli” value is “only TD from Corynebacterium glutamicum (CgTD) showed activities toward both configurations”.
The same measure for `N[C@H](C(=O)O)C(O)c1ccccc1` (stereo partly drawn) [threo-3a, threo-ʟ-phenylserine]: “the TD activities toward both threo- and erythro-ʟ-phenylserine (threo/erythro-3a) were tested”.
